Assay results: US20240350447A1, “DELIVERY METHODS FOR TREATING BRAIN AND CENTRAL NERVOUS SYSTEM DISEASES” (JENIVISION INC., priority 2021, published 2024)
Where “and” joins values, the source holds several entries; their conditions need not be identical. Identical values can stand only once. Like-named read-outs stand apart in the source and are kept apart here.

Key:
[1] = Baseline endogenous levels of DHA, DHA-EE and JV-DE1; type: in vivo; details: undosed Bama minipigs
Protocol: Endogenous levels were measured in the plasma, cerebrospinal fluid, ocular tissues (retina, optic nerve, ocular muscles), and brain. The endogenous levels DHA are not attributable to NIODP administration of DHA, DHA-EE, or JV-DE1. The baseline data collected in Table 4 was taken from the same lot of pigs, from the same vendor, as the information collected in Tables 5-7.

[2] = Baseline endogenous levels of DHA in monkeys; type: in vivo; details: no NIODP dosing
Text: The endogenous levels DHA is originated from normal diet and not attributable to NIODP administration.

[3] = Biodistribution of DHA after periorbital skin (NIODP) application to one eye; type: in vivo, Cynomolgus monkeys; details: for DHA in cornea / DHA in upper eyelid / DHA in vitreous humor / concentration at 0 h: 0 h (baseline); for DHA in cornea / DHA in upper eyelid / DHA in vitreous humor / Retina/Upper eyelid ratio of DHA / concentration at 0.5 h / concentration at 3 h / concentration at 6 h / concentration at 24 h / concentration at 0 h: 6755.1 μg to OS via NIODP; for concentration at 0.5 h / concentration at 3 h / concentration at 6 h / concentration at 24 h / concentration at 0 h / Kp: cynomolgus monkey
Protocol: An experiment was performed to determine the biodisposition of DHA following topical application to the periorbital skin that surrounds the anterior portion of the globe was performed.
Docosahexaenoic acid (DHA) is an omega-3 fatty acid and an essential component for neuronal formation, function and protection. […] […] High concentrations of DHA (from 35.6 to 97.3 μg/g) were detected in the undoes retina, which is similar to the dosed retina.
Moreover, compared to the baseline retina/plasma ratio of 7-fold, and with no significant changes in plasma, the retina/plasma ratios of DHA in the undosed eye were at least 30-fold at each post dose timepoint, signifying that the undosed retina uptake of DHA was not from blood circulation.

CC/C=C\C/C=C\C/C=C\C/C=C\C/C=C\C/C=C\CCC(=O)O [DHA, docosahexaenoic acid]
Baseline endogenous concentration in brain [1]: 20758 ng/g | Baseline endogenous concentration in cerebrospinal fluid [1]: BLQ | Baseline endogenous concentration in eye tissue homogenate including (Retina, optic nerve, ocular muscle) [1]: 2643.5 ng/g | Baseline endogenous concentration in plasma [1]: 122.1 ng/mL | Calculated Concentration, endogenous DHA in cornea ([2]; double blank samples): BLQ | Calculated Concentration, endogenous DHA in plasma ([2]; double blank samples): 0.5 µg/mL and 0.6 µg/mL | Calculated Concentration, endogenous DHA in retina ([2]; double blank samples): 16 µg/g and 17 µg/g | Calculated Concentration, endogenous DHA in upper eyelid ([2]; double blank samples): BLQ | Calculated Concentration, endogenous DHA in vitreous humor ([2]; double blank samples): BLQ | Endogenous levels of DHA in monkey ocular tissues ([2]; LLOQ=0.5 μg/mL): mostly below the lower limit of quantification (LLOQ=0.5 μg/mL) or negligible | DHA in the undosed right cornea and vitreous humor ([3]; DHA to OS via NIODP): No DHA was detectable | DHA in cornea ([3]; OD (undosed eye)): BLQ | DHA in upper eyelid ([3]; OD (undosed eye)): BLQ | DHA in vitreous humor ([3]; OD (undosed eye)): BLQ | Retina/Upper eyelid ratio of DHA ([3]; OD (undosed eye), 0.5 h): 172% | Retina/Upper eyelid ratio of DHA ([3]; OD (undosed eye), 3 h): 1678% | Retina/Upper eyelid ratio of DHA ([3]; OD (undosed eye), 6 h): 1057% | Retina/Upper eyelid ratio of DHA ([3]; OD (undosed eye), 24 h): 672% | DHA in cornea ([3]; OS (dosed eye)): BLQ | DHA in upper eyelid ([3]; OS (dosed eye)): BLQ | DHA in vitreous humor ([3]; OS (dosed eye)): BLQ | Retina/Upper eyelid ratio of DHA ([3]; OS (dosed eye), 0.5 h): 29% | Retina/Upper eyelid ratio of DHA ([3]; OS (dosed eye), 3 h): 16% | Retina/Upper eyelid ratio of DHA ([3]; OS (dosed eye), 6 h): 735% | Retina/Upper eyelid ratio of DHA ([3]; OS (dosed eye), 24 h): 292% | concentration at 0.5 h ([3]; cornea of the undosed right eye (OD), topical, OD (undosed eye), 0.5 h, read-out: DHA in cornea): 0 ng/g | concentration at 3 h ([3]; cornea of the undosed right eye (OD), topical, OD (undosed eye), 3 h, read-out: DHA in cornea): 0 ng/g | concentration at 6 h ([3]; cornea of the undosed right eye (OD), topical, OD (undosed eye), 6 h, read-out: DHA in cornea): 0 ng/g | concentration at 24 h ([3]; cornea of the undosed right eye (OD), topical, OD (undosed eye), 24 h, read-out: DHA in cornea): 0 ng/g | concentration at 0 h ([3]; plasma, topical, read-out: DHA in plasma): 2400 ng/mL | concentration at 0.5 h ([3]; plasma, topical, 0.5 h post dose, read-out: DHA in plasma): 2200 ng/mL | concentration at 3 h ([3]; plasma, topical, 3 h post dose, read-out: DHA in plasma): 3100 ng/mL | concentration at 6 h ([3]; plasma, topical, 6 h post dose, read-out: DHA in plasma): 2100 ng/mL | concentration at 24 h ([3]; plasma, topical, 24 h post dose, read-out: DHA in plasma): 1200 ng/mL | Kp ([3]; retina / plasma, baseline (before dosing), read-out: Baseline retina/plasma ratio of DHA): 7 | concentration at 0 h ([3]; retina of the dosed left eye (OS), topical, OS (dosed eye), read-out: DHA in retina): 16500 ng/g | Kp ([3]; retina of the undosed eye / plasma, topical, 6775.1 μg/eye, each post dose timepoint, DHA to OS via NIODP, read-out: Retina/plasma ratio of DHA in the undosed eye): ≥ 30 | concentration at 0 h ([3]; retina of the undosed right eye (OD), topical, OD (undosed eye), read-out: DHA in retina): 16500 ng/g | concentration at 0.5 h ([3]; retina of the undosed right eye (OD), topical, OD (undosed eye), 0.5 h, read-out: DHA in retina): 70800 ng/g | concentration at 3 h ([3]; retina of the undosed right eye (OD), topical, OD (undosed eye), 3 h, read-out: DHA in retina): 97300 ng/g | concentration at 6 h ([3]; retina of the undosed right eye (OD), topical, OD (undosed eye), 6 h, read-out: DHA in retina): 78200 ng/g | concentration at 24 h ([3]; retina of the undosed right eye (OD), topical, OD (undosed eye), 24 h, read-out: DHA in retina): 35600 ng/g | concentration at 0.5 h ([3]; upper eyelid of the undosed right eye (OD), topical, OD (undosed eye), 0.5 h, read-out: DHA in upper eyelid): 41100 ng/g | concentration at 3 h ([3]; upper eyelid of the undosed right eye (OD), topical, OD (undosed eye), 3 h, read-out: DHA in upper eyelid): 5800 ng/g | concentration at 6 h ([3]; upper eyelid of the undosed right eye (OD), topical, OD (undosed eye), 6 h, read-out: DHA in upper eyelid): 7400 ng/g | concentration at 24 h ([3]; upper eyelid of the undosed right eye (OD), topical, OD (undosed eye), 24 h, read-out: DHA in upper eyelid): 5300 ng/g | concentration at 0.5 h ([3]; vitreous humor of the dosed left eye (OS), topical, OS (dosed eye), 0.5 h, read-out: DHA in vitreous humor): 0 ng/mL
